Experimental findings from patent US8785400B2, “Methods and compositions relating to islet cell neogenesis” (CureDM Group Holdings, LLC, priority 2006, dated 2014) are described below.

Series [1] relates to human cell cultures (mixed islets and ductal tissue cultures). Nature of the series: Insulin content by RIA, mixed human islet and ductal cultures (Example 2). It counts as cell-based. The conditions noted are these: vs HIP1, HIP, hamster INGAP, saline; FIG. 3. How it is done:
HIP2, HIP1, HIP, controls and progenitor fractions were cultured over 10 days, according to standard protocol. Briefly, pancreata from adult human cadaveric organ donors were obtained through the local organ procurement organization. Islets were isolated according to established protocols described by Bonner-Weir and Jamal. (Bonner-Weir et al. Pediatric Diabetes: 2004; 5 (Suppl 2): 16-22. Jamal et al. Cell Death Differ. 2005 July; 12(7): 702-12). HIP2, HIP1, HIP and INGAP were synthesized by Bachem Bioscience, Malvern, Pa. and were quality tested by HPCL to be greater than 95% pure. Each peptide was provided in lyophilized powder and was resuspended in isotonic saline solution. Stock solutions were made so that only 1-2 ul aliquots were added to primary cell cultures to reach the final concentrations provided below. Stock solutions were frozen and thawed a total of three times for the six day treatment. […]
Pancreata from adult human cadaveric organ donors were obtained through the local organ procurement organization. […] Free islets with diameters ranging from 75 to 400 μm, determined to be greater than 90% pure by staining with dithizone (Sigma) a zinc chelater, were collected and washed. […]
Insulin levels were detected by Radioimmunoassay (RIA) from cultures treated with saline only (s/0), HIP2, HIP1, HIP and hamster INGAP. […]

Series [2] can be described thus: Stability of peptide in isotonic saline. The class given is physicochemical. The conditions noted are these: 20° C. in isotonic saline. On the procedure: Further, HIP2, may be stably stored for long periods of time.
HIP2, HIP1, HIP, controls and progenitor fractions were cultured over 10 days, according to standard protocol. Briefly, pancreata from adult human cadaveric organ donors were obtained through the local organ procurement organization. Islets were isolated according to established protocols described by Bonner-Weir and Jamal. (Bonner-Weir et al. Pediatric Diabetes: 2004; 5 (Suppl 2): 16-22. Jamal et al. Cell Death Differ. 2005 July; 12(7): 702-12). HIP2, HIP1, HIP and INGAP were synthesized by Bachem Bioscience, Malvern, Pa. and were quality tested by HPCL to be greater than 95% pure. Each peptide was provided in lyophilized powder and was resuspended in isotonic saline solution. Stock solutions were made so that only 1-2 ul aliquots were added to primary cell cultures to reach the final concentrations provided below. […] HPLC data confirmed that the peptides remained stable in the isotonic saline after the freeze/thaw cycles.

With “HIP2: Human proIslet Peptide, fragment of human REG3A, in purified, synthetic, or recombinant form (SEQ ID NO:4) (IGLHDPTQGTEPNG; Fragment of naturally occurring human REG3 protein)”, the “increased bioactivity over the other agents used (insulin, RIA)” value in series [1] was 1.50-3.33 fold. For the same substance, the storage stability entry in series [2] is “stable for months”.
